Source: US11999669B1, “Nitrogen activator stabilizer for reducing and protecting nitrogen fertilizer” (KING FAISAL UNIVERSITY, priority 2023, dated 2024)

Test: Dissolution of ABT-PNB in water
Type: physicochemical
Experimental: Referring to Scheme 2 above, reaction of 0.2 mmol ethyl cyanoacetate with 0.2 mmol thiourea under MW-US condition for 5 min afforded compound 1. One pot reaction of 0.1 mmole of the compound (1) with 0.1 mmole of 2-nitro-6-cyanobenzoic acid (2) in boiling 2 mL ethanol under MW reaction condition for 10 min afforded 6-(imidazo[4,5-d]pyrimidin-2yl) benzoic acid derivative 3. Reflux reaction of the 0.01 mol compound 3 with 0.02 mole ethylchloroacetate in 10 mL acetone for 5 h afforded the ester 4. US promoted reaction of the 0.01 mol of the compound 4 was allowed to react with 0.01 mol of 4-(dimethylamino)butylchloride, thereby affording the desired fertilized ionic liquid ABT-PNB.

With `CCOC(=O)CSc1nc2c(=O)n(CCCCN(C)C)c(-c3cccc([N+](=O)[O-])c3C(=O)O)nc2[nH]1` [ABT-PNB, 2-(1-(4-(dimethylamino)butyl)-8-((2-ethoxy-2-oxoethyl)thio)-6-oxo-6,9-dihydro-1H-purin-2-yl)-6-nitrobenzoic acid] the solubility in water was “easily dissolved in water”.
